Data published in patent publication US10588317B2, “Isoxazoline-substituted benzamides and analogues as insecticides” (priority 2015, dated 2020).

Legend:
Type in all cases: in vivo
Plutella xylostella = Plutella xylostella (diamond back moth), artificial diet; conditions: 120 h, application rate 200 ppm, L2 larvae, 5 days after infestation, read-out: effect in at least one of the two categories (mortality or growth inhibition)
Procedure, shortened: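 Artificial diet in 24-well plates treated with aqueous test solutions made from 10'000 ppm DMSO stocks, dried, then infested with L2 larvae (10 to 15 per well). Mortality and growth inhibition scored against untreated samples 5 days after infestation; activity cut-off at least 80% in either category at 200 ppm.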

Spodoptera littoralis [1] = experiment: Spodoptera littoralis (Egyptian cotton leaf worm), sprayed cotton leaf discs; conditions: foliar, 72 h, application rate 200 ppm, L1 larvae, 3 days after infestation, read-out: control (mortality, anti-feeding effect, growth inhibition)
Procedure, shortened: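 Cotton leaf discs on agar sprayed with aqueous test solutions made from 10'000 ppm DMSO stock; after drying, infested with five L1 larvae. Mortality, anti-feeding and growth inhibition scored versus untreated samples 3 days after infestation; control counted when any category exceeds untreated.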

Tetranychus urticae = Tetranychus urticae (two-spotted spider mite): feeding/contact activity; conditions: 192 h, application rate 200 ppm, mixed population (mobile stages), 8 days after infestation, read-out: mortality
Method: Bean leaf discs on agar in 24-well microtiter plates were sprayed with aqueous test solutions prepared from 10'000 ppm DMSO stock solutions. After drying the leaf discs were infested with a mite population of mixed ages. The samples were assessed for mortality on mixed population (mobile stages) 8 days after infestation.

Thrips tabaci = Thrips tabaci (onion thrips): feeding/contact activity; conditions: 144 h, application rate 200 ppm, Thrips population of mixed ages, 6 days after infestation, read-out: mortality
Method: Sunflower leaf discs were placed on agar in 24-well microtiter plates and sprayed with aqueous test solutions prepared from 10'000 ppm DMSO stock solutions. After drying the leaf discs were infested with a Thrips population of mixed ages. The samples were assessed for mortality 6 days after infestation.

Spodoptera littoralis [2] = experiment: Spodoptera littoralis (Egyptian cotton leaf worm), uptake by lettuce roots from agar; conditions: 144 h, read-out: effect in at least one of the three categories (mortality, anti-feeding, or growth inhibition); for percent effect (mortality, anti-feeding or growth inhibition) at 12.5 ppm: test rate 12.5 ppm, eggs, 6 days after infestation
Source text: Test compounds were applied by pipette from 10'000 ppm DMSO stock solutions into 24-well plates and mixed with agar. Lettuce seeds were placed onto the agar and the multi well plate was closed by another plate which contained also agar. After 7 days the compound was absorbed by the roots and the lettuce grew into the lid plate. The lettuce leaves were then cut off into the lid plate. Spodoptera eggs were pipetted through a plastic stencil onto a humid gel blotting paper and the lid plate was closed with it. The samples were assessed for mortality, anti-feedant effect and growth inhibition in comparison to untreated samples 6 days after infestation.
The following compounds gave an effect of at least 80% in at least one of the three categories (mortality, anti-feeding, or growth inhibition) at a test rate of 12.5 ppm: […]

Diabrotica balteata = Diabrotica balteata (corn root worm), sprayed maize sprouts; conditions: 96 h, application rate 200 ppm, L2 larvae, 4 days after infestation, read-out: effect in at least one of the two categories (mortality or growth inhibition)
Procedure, shortened: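 Maize sprouts on agar sprayed with aqueous dilutions of DMSO stocks, dried, then infested with L2 larvae (6–10 per well). Mortality and growth inhibition scored against untreated controls 4 days after infestation, at 200 ppm application rate.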

Myzus persicae = Myzus persicae (green peach aphid): feeding/contact activity; conditions: 144 h, application rate 200 ppm, aphid population of mixed ages, 6 days after infestation, read-out: mortality
Method: Sunflower leaf discs were placed onto agar in a 24-well microtiter plate and sprayed with aqueous test solutions prepared from 10'000 ppm DMSO stock solutions. After drying, the leaf discs were infested with an aphid population of mixed ages. The samples were assessed for mortality 6 days after infestation.

Euschistus heros = Euschistus heros (neotropical brown stink bug), sprayed soybean leaves; conditions: 120 h, application rate 200 ppm, N2 nymphs, 5 days after infestation, read-out: effect in at least one of the two categories (mortality or growth inhibition)
Procedure, shortened: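 Soybean leaves on agar sprayed with aqueous dilutions of DMSO stocks, dried, then infested with N2 nymphs. Mortality and growth inhibition scored against untreated samples 5 days after infestation; application rate 200 ppm.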

CCS(=O)(=O)N1C[C@@H](NC(=O)c2ccc(C3=NO[C@@](c4cc(Cl)c(Cl)c(Cl)c4)(C(F)(F)F)C3)cc2C)CO1 [Compound A118]
≥ 80%: percent effect (mortality or growth inhibition) at 200 ppm (Plutella xylostella) | mortality at 200 ppm (Spodoptera littoralis [1]) | mortality at 200 ppm (Tetranychus urticae) | mortality at 200 ppm (Thrips tabaci) | percent control (mortality, anti-feedant effect or growth inhibition) at 12.5 ppm (Spodoptera littoralis [2]) | percent effect (mortality or growth inhibition) at 200 ppm (Diabrotica balteata) | mortality at 200 ppm (Myzus persicae) | percent effect (mortality or growth inhibition) at 200 ppm (Euschistus heros)

CCS(=O)(=O)N1CC(NC(=O)c2ccc(C3=NO[C@@](c4cc(Cl)c(F)c(Cl)c4)(C(F)(F)F)C3)cc2Br)CO1 (stereo partly drawn) [Compound A44, 2-bromo-4-[(5S)-5-(3,5-dichloro-4-fluoro-phenyl)-5-(trifluoromethyl)-4H-isoxazol-3-yl]-N-(2-ethylsulfonylisoxazolidin-4-yl)benzamide]
≥ 80%: percent effect (mortality or growth inhibition) at 200 ppm (Plutella xylostella) | mortality at 200 ppm (Spodoptera littoralis [1]) | mortality at 200 ppm (Tetranychus urticae) | mortality at 200 ppm (Thrips tabaci) | percent control (mortality, anti-feedant effect or growth inhibition) at 12.5 ppm (Spodoptera littoralis [2]) | percent effect (mortality or growth inhibition) at 200 ppm (Diabrotica balteata) | mortality at 200 ppm (Myzus persicae) | percent effect (mortality or growth inhibition) at 200 ppm (Euschistus heros)

Cc1cc(C2=NOC(c3ccc(Cl)c(Cl)c3)(C(F)(F)F)C2)ccc1C(=O)NC1CON(S(C)(=O)=O)C1 (stereo not drawn) [Compound A66]
≥ 80%: percent effect (mortality or growth inhibition) at 200 ppm (Plutella xylostella) | mortality at 200 ppm (Spodoptera littoralis [1]) | mortality at 200 ppm (Tetranychus urticae) | mortality at 200 ppm (Thrips tabaci) | percent effect (mortality, anti-feeding or growth inhibition) at 12.5 ppm (Spodoptera littoralis [2]) | percent effect (mortality or growth inhibition) at 200 ppm (Diabrotica balteata) | mortality at 200 ppm (Myzus persicae) | percent effect (mortality or growth inhibition) at 200 ppm (Euschistus heros)

CCNS(=O)(=O)N1CC(NC(=O)c2ccc(C3=NO[C@@](c4cc(Cl)c(F)c(Cl)c4)(C(F)(F)F)C3)cc2C)CO1 (stereo partly drawn) [Compound A95]
≥ 80%: percent effect (mortality or growth inhibition) at 200 ppm (Plutella xylostella) | mortality at 200 ppm (Spodoptera littoralis [1]) | mortality at 200 ppm (Tetranychus urticae) | mortality at 200 ppm (Thrips tabaci) | percent control (mortality, anti-feedant effect or growth inhibition) at 12.5 ppm (Spodoptera littoralis [2]) | percent effect (mortality or growth inhibition) at 200 ppm (Diabrotica balteata) | mortality at 200 ppm (Myzus persicae) | percent effect (mortality or growth inhibition) at 200 ppm (Euschistus heros)

Cc1cc(C2=NO[C@@](c3cc(Cl)c(Cl)c(Cl)c3)(C(F)(F)F)C2)ccc1C(=O)N[C@@H]1CON(S(=O)(=O)N(C)C)C1 (single isomer, unassigned) [Compound A112]
≥ 80%: percent effect (mortality or growth inhibition) at 200 ppm (Plutella xylostella) | mortality at 200 ppm (Spodoptera littoralis [1]) | mortality at 200 ppm (Tetranychus urticae) | mortality at 200 ppm (Thrips tabaci) | percent control (mortality, anti-feedant effect or growth inhibition) at 12.5 ppm (Spodoptera littoralis [2]) | percent effect (mortality or growth inhibition) at 200 ppm (Diabrotica balteata) | mortality at 200 ppm (Myzus persicae) | percent effect (mortality or growth inhibition) at 200 ppm (Euschistus heros)

CCN(C)S(=O)(=O)N1C[C@@H](NC(=O)c2ccc(C3=NO[C@@](c4cc(Cl)cc(Cl)c4)(C(F)(F)F)C3)cc2C)CO1 [Compound A142]
≥ 80%: percent effect (mortality or growth inhibition) at 200 ppm (Plutella xylostella) | mortality at 200 ppm (Spodoptera littoralis [1]) | mortality at 200 ppm (Tetranychus urticae) | mortality at 200 ppm (Thrips tabaci) | percent control (mortality, anti-feedant effect or growth inhibition) at 12.5 ppm (Spodoptera littoralis [2]) | percent effect (mortality or growth inhibition) at 200 ppm (Diabrotica balteata) | mortality at 200 ppm (Myzus persicae) | percent effect (mortality or growth inhibition) at 200 ppm (Euschistus heros)

CNS(=O)(=O)N1C[C@@H](NC(=O)c2ccc(C3=NO[C@@](c4cc(Cl)cc(Cl)c4)(C(F)(F)F)C3)cc2C)CO1 [Compound A139, 4-[(5S)-5-(3,5-dichlorophenyl)-5-(trifluoromethyl)-4H-isoxazol-3-yl]-2-methyl-N-[(4R)-2-(methylsulfamoyl)isoxazolidin-4-yl]benzamide]
≥ 80%: percent effect (mortality or growth inhibition) at 200 ppm (Plutella xylostella) | mortality at 200 ppm (Spodoptera littoralis [1]) | mortality at 200 ppm (Tetranychus urticae) | mortality at 200 ppm (Thrips tabaci) | percent control (mortality, anti-feedant effect or growth inhibition) at 12.5 ppm (Spodoptera littoralis [2]) | percent effect (mortality or growth inhibition) at 200 ppm (Diabrotica balteata) | mortality at 200 ppm (Myzus persicae) | percent effect (mortality or growth inhibition) at 200 ppm (Euschistus heros)

Cc1cc(C2=NO[C@@](c3cc(Cl)c(F)c(Cl)c3)(C(F)(F)F)C2)ccc1C(=O)NC1CON(S(=O)(=O)CCC(F)(F)F)C1 (stereo partly drawn) [Compound A11]
≥ 80%: percent effect (mortality or growth inhibition) at 200 ppm (Plutella xylostella) | mortality at 200 ppm (Spodoptera littoralis [1]) | mortality at 200 ppm (Tetranychus urticae) | mortality at 200 ppm (Thrips tabaci) | percent control (mortality, anti-feedant effect or growth inhibition) at 12.5 ppm (Spodoptera littoralis [2]) | percent effect (mortality or growth inhibition) at 200 ppm (Diabrotica balteata) | mortality at 200 ppm (Myzus persicae) | percent effect (mortality or growth inhibition) at 200 ppm (Euschistus heros)

CN(C)S(=O)(=O)N1C[C@@H](NC(=O)c2ccc(C3=NO[C@@](c4cc(Cl)cc(C(F)(F)F)c4)(C(F)(F)F)C3)cc2Cl)CO1 [Compound A108]
≥ 80%: percent effect (mortality or growth inhibition) at 200 ppm (Plutella xylostella) | mortality at 200 ppm (Spodoptera littoralis [1]) | mortality at 200 ppm (Tetranychus urticae) | mortality at 200 ppm (Thrips tabaci) | percent control (mortality, anti-feedant effect or growth inhibition) at 12.5 ppm (Spodoptera littoralis [2]) | percent effect (mortality or growth inhibition) at 200 ppm (Diabrotica balteata) | mortality at 200 ppm (Myzus persicae) | percent effect (mortality or growth inhibition) at 200 ppm (Euschistus heros)

CCOC(=O)N(C)S(=O)(=O)N1CC(NC(=O)c2ccc(C3=NO[C@@](c4cc(Cl)c(F)c(Cl)c4)(C(F)(F)F)C3)cc2C)CO1 (stereo partly drawn) [Compound A76]
≥ 80%: percent effect (mortality or growth inhibition) at 200 ppm (Plutella xylostella) | mortality at 200 ppm (Spodoptera littoralis [1]) | mortality at 200 ppm (Tetranychus urticae) | mortality at 200 ppm (Thrips tabaci) | percent control (mortality, anti-feedant effect or growth inhibition) at 12.5 ppm (Spodoptera littoralis [2]) | percent effect (mortality or growth inhibition) at 200 ppm (Diabrotica balteata) | mortality at 200 ppm (Myzus persicae) | percent effect (mortality or growth inhibition) at 200 ppm (Euschistus heros)

Cc1cc(C2=NOC(c3cc(Cl)cc(Cl)c3)(C(F)(F)F)C2)ccc1C(=O)NC1CON(S(C)(=O)=O)C1 (stereo not drawn) [Compound A33, 4-[5-(3,5-dichlorophenyl)-5-(trifluoromethyl)-4H-isoxazol-3-yl]-2-methyl-N-(2-methylsulfonylisoxazolidin-4-yl)benzamide]
≥ 80%: percent effect (mortality or growth inhibition) at 200 ppm (Plutella xylostella) | mortality at 200 ppm (Spodoptera littoralis [1]) | mortality at 200 ppm (Tetranychus urticae) | mortality at 200 ppm (Thrips tabaci) | percent control (mortality, anti-feedant effect or growth inhibition) at 12.5 ppm (Spodoptera littoralis [2]) | percent effect (mortality or growth inhibition) at 200 ppm (Diabrotica balteata) | mortality at 200 ppm (Myzus persicae) | percent effect (mortality or growth inhibition) at 200 ppm (Euschistus heros)

Cc1cc(C2=NO[C@@](c3cccc(C(F)(F)F)c3)(C(F)(F)F)C2)ccc1C(=O)N[C@H]1CON(S(C)(=O)=O)C1 [Compound A159]
≥ 80%: percent effect (mortality or growth inhibition) at 200 ppm (Plutella xylostella) | mortality at 200 ppm (Spodoptera littoralis [1]) | mortality at 200 ppm (Tetranychus urticae) | mortality at 200 ppm (Thrips tabaci) | percent effect (mortality, anti-feeding or growth inhibition) at 12.5 ppm (Spodoptera littoralis [2]) | percent effect (mortality or growth inhibition) at 200 ppm (Diabrotica balteata) | mortality at 200 ppm (Myzus persicae) | percent effect (mortality or growth inhibition) at 200 ppm (Euschistus heros)
